Results: article PMC4424274, “Evaluation of [^11C]CB184 for imaging and quantification of TSPO overexpression in a rat model of herpes encephalitis” (European Journal of Nuclear Medicine and Molecular Imaging, 2015)

Target: T1, TSPO (Rattus norvegicus, UniProt P16257)
T1 construct: from tissue; host or cells: Brain regions and peripheral organs of male Wistar rats, measured in vivo by PET and ex vivo by gamma counting
Assay: Ex vivo biodistribution of [^11C]CB184 in control and HSE rats
Experimental: PET scans were performed using a microPET Focus 220 camera (Siemens Medical Solutions Inc., Malvern, PA) on either day 6 or day 7 after inoculation with HSV-1 [18], depending on the severity of clinical symptoms. The rats were anaesthetized with 5 % isoflurane mixed with medical air at a flow rate of […]. After induction, anaesthesia was maintained with 1.5 – 2 % of isoflurane. The anaesthetized rats were positioned in the camera in a supine position with the head in the field of view. The PET tracer [^11C]CB184 was manually injected via the penile vein, and at the same time a dynamic 60-min scan was started. […] For 30 min the animals were kept under anaesthesia on the operation table after injection of the PET tracer into the penile vein, and were then placed in the scanner for a 30-min dynamic scan. A transmission scan was obtained in all rats using a ^57Co point source for attenuation and scatter correction. In the pretreated group, 5 mg/kg unlabelled PK11195 (Sigma-Aldrich, St. Louis, MO) in dimethyl sulphoxide (DMSO) at a concentration of 10 mg/ml was administered via a tail vein 5 min before injection of the PET tracer.
The brain and peripheral organs were excised and dissected, and blood was centrifuged to collect a plasma sample. Tissues were weighed and radioactivity was measured in a gamma counter (LKB Wallac, Turku, Finland). Tracer uptake in each region was corrected for the injected tracer dose and body weight and expressed as standardized uptake value (SUV), which was defined as: radioactivity (MBq/cm^3)/[injected dose (MBq)/body weight (g)].

[1] = HSE rats pretreated with 5 mg/kg PK11195, approximately 75 min after injection
[2] = HSE rats, approximately 75 min after injection
[3] = control (PBS) rats pretreated with 5 mg/kg PK11195, approximately 75 min after injection
[4] = control rats, approximately 75 min after injection

SMILES: CCCN(CCC)C(=O)Cc1c(-c2ccc(O[11CH3])cc2)nc2c(Cl)cc(Cl)cn12 [[^11C]CB184]
- SUV ex vivo, Adrenals [1]: 8.14 ± 7.09 SUV
- SUV ex vivo, Bone [1]: 0.39 ± 0.24 SUV
- SUV ex vivo, Colon [1]: 0.49 ± 0.36 SUV
- SUV ex vivo, Fat [1]: 0.72 ± 0.49 SUV
- SUV ex vivo, Heart [1]: 0.77 ± 0.53 SUV
- SUV ex vivo, Hippocampus [1]: 0.09 ± 0.05 SUV
- SUV ex vivo, Ileum [1]: 2.74 ± 1.77 SUV
- SUV ex vivo, Kidney [1]: 1.12 ± 0.75 SUV
- SUV ex vivo, Liver [1]: 10.71 ± 9.25 SUV
- SUV ex vivo, Lung [1]: 1.62 ± 0.98 SUV
- SUV ex vivo, Medulla [1]: 0.13 ± 0.06 SUV
- SUV ex vivo, Pancreas [1]: 0.62 ± 0.37 SUV
- SUV ex vivo, Parietal/temporal/occipital cortex [1]: 0.10 ± 0.05 SUV
- SUV ex vivo, Plasma [1]: 0.19 ± 0.04 SUV
- SUV ex vivo, Pons [1]: 0.12 ± 0.10 SUV
- SUV ex vivo, Red blood cells [1]: 0.11 ± 0.07 SUV
- SUV ex vivo, Spleen [1]: 0.71 ± 0.55 SUV
- SUV ex vivo, Stomach [1]: 0.82 ± 0.60 SUV
- SUV ex vivo, Striatum [1]: 0.09 ± 0.06 SUV
- SUV ex vivo, Submandibularis [1]: 0.79 ± 0.56 SUV
- SUV ex vivo, Testis [1]: 0.29 ± 0.21 SUV
- SUV ex vivo, Thymus [1]: 0.74 ± 0.46 SUV
- SUV ex vivo, Whole brain [1]: 0.08 ± 0.08 SUV
- SUV ex vivo, Adrenals [2]: 13.86 ± 4.42 SUV
- SUV ex vivo, Amygdala/piriform cortex [2]: 0.52 ± 0.21 SUV
- SUV ex vivo, Bone [2]: 0.98 ± 0.14 SUV
- SUV ex vivo, Colon [2]: 3.29 ± 0.81 SUV
- SUV ex vivo, Fat [2]: 0.57 ± 0.39 SUV
- SUV ex vivo, Heart [2]: 23.69 ± 2.71 SUV
- SUV ex vivo, Hippocampus [2]: 0.55 ± 0.21 SUV
- SUV ex vivo, Ileum [2]: 6.20 ± 2.67 SUV
- SUV ex vivo, Kidney [2]: 13.17 ± 2.25 SUV
- SUV ex vivo, Liver [2]: 7.97 ± 1.73 SUV
- SUV ex vivo, Lung [2]: 22.53 ± 2.41 SUV
- SUV ex vivo, Medulla [2]: 1.51 ± 0.57 SUV
- SUV ex vivo, Olfactory bulb [2]: 1.52 ± 0.22 SUV
- SUV ex vivo, Pancreas [2]: 4.23 ± 0.76 SUV
- SUV ex vivo, Parietal/temporal/occipital cortex [2]: 0.41 ± 0.14 SUV
- SUV ex vivo, Plasma [2]: 0.28 ± 0.24 SUV
- SUV ex vivo, Pons [2]: 1.26 ± 0.52 SUV
- SUV ex vivo, Red blood cells [2]: 0.13 ± 0.01 SUV
- SUV ex vivo, Spleen [2]: 11.76 ± 1.42 SUV
- SUV ex vivo, Stomach [2]: 5.88 ± 1.87 SUV
- SUV ex vivo, Striatum [2]: 0.45 ± 0.15 SUV
- SUV ex vivo, Submandibularis [2]: 4.89 ± 0.75 SUV
- SUV ex vivo, Testis [2]: 0.88 ± 0.12 SUV
- SUV ex vivo, Thymus [2]: 3.23 ± 0.33 SUV
- SUV ex vivo, Whole brain [2]: 0.99 ± 0.21 SUV
- SUV ex vivo, Adrenals [3]: 7.72 ± 5.20 SUV
- SUV ex vivo, Bone [3]: 0.31 ± 0.19 SUV
- SUV ex vivo, Colon [3]: 0.42 ± 0.24 SUV
- SUV ex vivo, Fat [3]: 0.48 ± 0.18 SUV
- SUV ex vivo, Heart [3]: 0.68 ± 0.40 SUV
- SUV ex vivo, Hippocampus [3]: 0.12 ± 0.08 SUV
- SUV ex vivo, Ileum [3]: 2.31 ± 1.15 SUV
- SUV ex vivo, Kidney [3]: 0.72 ± 0.44 SUV
- SUV ex vivo, Liver [3]: 11.28 ± 5.43 SUV
- SUV ex vivo, Lung [3]: 0.95 ± 0.57 SUV
- SUV ex vivo, Medulla [3]: 0.12 ± 0.07 SUV
- SUV ex vivo, Pancreas [3]: 0.57 ± 0.34 SUV
- SUV ex vivo, Parietal/temporal/occipital cortex [3]: 0.10 ± 0.06 SUV
- SUV ex vivo, Plasma [3]: 0.27 ± 0.15 SUV
- SUV ex vivo, Pons [3]: 0.12 ± 0.08 SUV
- SUV ex vivo, Red blood cells [3]: 0.11 ± 0.05 SUV
- SUV ex vivo, Spleen [3]: 0.70 ± 0.47 SUV
- SUV ex vivo, Stomach [3]: 0.70 ± 0.46 SUV
- SUV ex vivo, Striatum [3]: 0.11 ± 0.07 SUV
- SUV ex vivo, Submandibularis [3]: 0.70 ± 0.46 SUV
- SUV ex vivo, Testis [3]: 0.30 ± 0.24 SUV
- SUV ex vivo, Thymus [3]: 0.72 ± 0.44 SUV
- SUV ex vivo, Whole brain [3]: 0.15 ± 0.08 SUV
- SUV ex vivo, Adrenals [4]: 14.84 ± 5.45 SUV
- SUV ex vivo, Bone [4]: 1.00 ± 0.26 SUV
- SUV ex vivo, Colon [4]: 3.38 ± 0.97 SUV
- SUV ex vivo, Fat [4]: 0.43 ± 0.21 SUV
- SUV ex vivo, Heart [4]: 22.81 ± 2.80 SUV
- SUV ex vivo, Hippocampus [4]: 0.39 ± 0.18 SUV
- SUV ex vivo, Ileum [4]: 6.41 ± 3.07 SUV
- SUV ex vivo, Kidney [4]: 12.52 ± 2.22 SUV
- SUV ex vivo, Liver [4]: 7.57 ± 1.64 SUV
- SUV ex vivo, Lung [4]: 18.39 ± 2.20 SUV
- SUV ex vivo, Medulla [4]: 0.59 ± 0.14 SUV
- SUV ex vivo, Pancreas [4]: 3.55 ± 0.52 SUV
- SUV ex vivo, Parietal/temporal/occipital cortex [4]: 0.32 ± 0.06 SUV
- SUV ex vivo, Plasma [4]: 0.18 ± 0.08 SUV
- SUV ex vivo, Pons [4]: 0.63 ± 0.08 SUV
- SUV ex vivo, Red blood cells [4]: 0.19 ± 0.18 SUV
- SUV ex vivo, Spleen [4]: 13.23 ± 2.64 SUV
- SUV ex vivo, Stomach [4]: 5.04 ± 0.82 SUV
- SUV ex vivo, Striatum [4]: 0.28 ± 0.07 SUV
- SUV ex vivo, Submandibularis [4]: 4.28 ± 1.02 SUV
- SUV ex vivo, Testis [4]: 0.98 ± 0.11 SUV
- SUV ex vivo, Thymus [4]: 3.36 ± 0.58 SUV
- SUV ex vivo, Whole brain [4]: 0.66 ± 0.16 SUV
- SUV ex vivo, adrenal glands (mean ± SD) (pretreated with unlabelled PK11195, control and HSE groups together): 7.93 ± 5.87 SUV
